pEC50: −log10 of the molar value.
Tests used:
Format in all cases: cell-based
[1] = tested on: HIV-1/LAI strain selected with NFV (3000 nM, 69 days), protease L10F D30N M46I V77I I85V/I N88D/N; assay: In vitro antiviral activity in acutely infected MT4 cells, selected strain; details: for pEC50: Human immunodeficiency virus 1, Table 5, strain L10F D30N M46I V77I I85V/I N88D/N (NFV 3000 nM, 69 days), read-out: median EC50; for median FC (fold change in EC50 as compared to wild type): Table 5, strain L10F D30N M46I V77I I85V/I N88D/N (NFV 3000 nM, 69 days)
Procedure: (§1) Determination of the antiviral activity of a compound was done as described in Pauwels R. et al. (J Virol Methods 1988; 20(4):309-21). Various concentrations of the test compounds were brought into each well of a flat-bottom microtiter plate. Subsequently, HIV and MT4 cells were added to a final concentration of 200-250 50% cell culture infectious doses (CCID50)/well and 30,000 cells/well, respectively. After 5 days of incubation (37° C., 5% CO2), the cytopathic effect of the replicating virus was determined by the tetrazolium colorimetric MTT method. The dose protecting 50% of the cells from virus cytopathic effect was defined as the EC50, while the dose achieving 90% protection was defined as the EC90.
(§2) MT4-LTR-EGFP cells were infected at a multiplicity of infection (MOI) of 0.01 to 0.001 CCID50/cell in the presence of inhibitor. The starting concentration of the inhibitor was two to tee times the EC50, a suboptimal concentration. The cultures were sub-cultivated and scored microscopically on virus-induced fluorescence and cytopathicity every 3-4 days. The cultures were sub-cultivated in the presence of the same compound concentration until signs of virus replication were observed. The escaping virus was further cultivated in the presence of the same inhibitor concentration in order to enrich the population in resistant variants. If full virus breakthrough was observed the supernatant was collected and stored (new virus strain). Afterwards, the same virus was challenged with a higher compound concentration in order to select variants able to grow in the presence of as high as possible inhibitor concentrations. From the new viruses, a virus stock was grown in the absence of inhibitor.
(§3) In vitro drug selection experiments starting from wild-type HIV-1 under pressure of compound 1, compound 2, and Nelfinavir (NFV) have been performed. Tables 1, 2, 3, 4, and 5 show the genotypic and phenotypic characterization of the selected strains.

[2] = tested on: HIV-1/LAI strain selected with Compound 1 (100 nM, 97 days), protease R41T K70E; assay: as above; details: for pEC50: Human immunodeficiency virus 1, Table 1, strain R41T K70E (Compound 1 100 nM, 97 days), read-out: median EC50; for median FC (fold change in EC50 as compared to wild type): Table 1, strain R41T K70E (Compound 1 100 nM, 97 days)
Procedure: as §1
as §2, with “The cultures were sub-cultivated in the presence of the same compound concentration until signs of virus replication were observed.” left out, “Afterwards, the same virus was challenged with a higher compound concentration in order to select variants able to grow in the presence of as high as possible inhibitor concentrations.” left out

[3] = tested on: HIV-1/LAI strain selected with Compound 2 (100 nM), protease R41I; assay: as above; details: Human immunodeficiency virus 1, Table 3, R41I strain selected with Compound 2 100 nM (head lists 116, 200, 264 days; assignment unclear), read-out: median EC50
Procedure: as §1
as §2, with “The cultures were sub-cultivated in the presence of the same compound concentration until signs of virus replication were observed.” left out, “Afterwards, the same virus was challenged with a higher compound concentration in order to select variants able to grow in the presence of as high as possible inhibitor concentrations.” left out

[4] = tested on: HIV-1 starting strain of Table 4 (no compound, no mutations); assay: In vitro antiviral activity in acutely infected MT4 cells, starting strain; details: for pEC50: Human immunodeficiency virus 1, starting strain HIV-1, no compound, read-out: median EC50; for median FC (fold change in EC50 as compared to wild type): starting strain HIV-1, no compound
Procedure: as §1, §2, §3

Row | Structure (SMILES) | pEC50 [1] | median FC (fold change in EC50 as compared to wild type) [1] | pEC50 [2] | median FC (fold change in EC50 as compared to wild type) [2] | pEC50 [3] | pEC50 [4] | median FC (fold change in EC50 as compared to wild type) [4]
1 | CC(C)(C)NC(=O)[C@@H]1C[C@@H]2CCCC[C@@H]2CN1C[C@@H](O)[C@H](Cc1ccccc1)NC(=O)[C@H](CC(N)=O)NC(=O)c1ccc2ccccc2n1 [Saquinavir] | 8.60 | 0 | 7.46 | 4 | 7.35 | 8.05 | 2
2 | CC(C)CN(C[C@@H](O)[C@H](Cc1ccccc1)NC(=O)O[C@H]1CCOC1)S(=O)(=O)c1ccc(N)cc1 [Amprenavir] | 7.23 | 3 | 7.54 | 1 | 8.08 | 7.59 | 1
3 | Cc1c(O)cccc1C(=O)N[C@@H](CSc1ccccc1)[C@H](O)CN1C[C@H]2CCCC[C@H]2C[C@H]1C(=O)NC(C)(C)C [Nelfinavir] | – | – | 7.74 | 1 | 7.85 | 7.51 | 1
4 | CC(C)(C)NC(=O)[C@@H]1CN(Cc2cccnc2)CCN1C[C@@H](O)C[C@@H](Cc1ccccc1)C(=O)N[C@H]1c2ccccc2C[C@H]1O [Indinavir] | – | – | 7.01 | 4 | 7.33 | 8.62 | 0

Source: US8592161B2, “Mutational profiles in HIV-1 protease correlated with phenotypic drug resistance” (Janssen R&D Ireland, priority 2002, dated 2013)
